Calls of active or inactive are those of the source.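 The calls were made as follows: active = EC50 no more than a set limit of log units above the highest dose; inactive = the rest.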
These compounds were tested against S. pyogenes SKKanGAS, kanamycin survival, BacTiterGlo, 6 h (assay: S. pyogenes SKKanGAS kanamycin growth inhibitors – SKKanGAS strain, luminescence, dose confirmation, streptokinase promoter inhibitor project, dose response (AID 1902);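 also: lower survival reflects blocked streptokinase promoter driving kanamycin resistance gene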).

SMILES | EC50
CC(C)c1ccc(C(=O)NC(=S)Nc2ccc3[nH]c(=O)[nH]c3c2)cc1 | 6260 nM
Cc1cc(N2CCN(c3ccccc3Cl)CC2)n2cc(-c3ccccc3)nc2n1 | 6630 nM
CC1(C)COCN1S(=O)(=O)c1ccc(C(=O)Nc2nnc(-c3ccc(Cl)s3)o2)cc1 | 459 nM
Oc1cc2ccccc2cc1-c1n[nH]c(=S)o1 | 11100 nM
O=[N+]([O-])c1c(NCCO)cc(Sc2nc3ccccc3s2)c2nonc12 | 2950 nM
O=C(Nc1cccc(C(F)(F)F)c1)c1cc2c(=O)c3ccccc3oc2nc1C(F)(F)F | 7270 nM
CCOC(=O)CC(NC(=O)CCS(=O)(=O)c1ccc2c(c1)n(C)c(=O)c(=O)n2C)c1ccc(C)cc1 (centres undefined) | > 15000 nM (inactive)
C/C(=N\NC(=O)c1cc2ccccc2cc1O)c1cc2ccccc2o1 | 1460 nM
Cc1cc(-c2csc3nc[nH]c(=S)c23)cc(C)c1C | 1670 nM
COc1ccc(Cl)cc1C(Nc1cccnc1)c1ccc2cccnc2c1O (centres undefined) | 6280 nM
CCc1ccc(C2C(C#N)=C(N)C(C#N)(C#N)C3=CCC(C(C)(C)C)CC32)cc1 (centres undefined) | 5180 nM
Cc1nn2c(COc3ccc(NC(=O)c4ccccc4Cl)cc3)nnc2c2ccccc12 | 1630 nM
CC1CCCCN1S(=O)(=O)c1ccc(C(=O)Nc2nnc(-c3cccs3)o2)cc1 (centres undefined) | 659 nM
Clc1ccc(-c2cc3ccccc3nc2N2CCCC2)cc1 | 5140 nM
NC(=NCCCCCCN=C(N)/N=C(\N)Nc1ccc(Cl)cc1)/N=C(\N)Nc1ccc(Cl)cc1 | 789 nM
CCCCNC(=O)c1cn(CC(C)C)c(=O)c2c1c1ccccc1n2C | 9020 nM
Nc1c(Cl)cc(C2=NCCn3c2c2ccc([N+](=O)[O-])cc2[n+]3[O-])cc1Cl | 2440 nM
c1ccc(CSC2=NNC(c3ccccn3)S2)cc1 (centres undefined) | 1130 nM
COc1ccccc1CN1CC(C(=O)NCc2ncccc2C)CCC1=O (centres undefined) | > 15000 nM (inactive)
Cc1cc(Oc2ccc(-c3ccccc3)cc2)nc(N2CCOCC2)n1 | 5710 nM
Cc1ccc(S(=O)(=O)/N=C2\C=C(Nc3cccc(C(=O)O)c3)C(=O)c3ccccc32)cc1 | 2430 nM
Cn1c(=O)c2c(nc(SCc3ccccc3)n2Cc2ccc(Cl)cc2)n(C)c1=O | 2300 nM

SMILES | EC50
S=c1[nH]nc(-c2cc(-c3ccccc3)n[nH]2)n1/N=C/c1ccc(Br)s1 | 5220 nM
CN(C)[C@@H]1C(=O)C(C(N)=O)=C(O)[C@@]2(O)C(=O)C3=C(O)c4c(O)cccc4[C@@](C)(O)C3C[C@@H]12 (some centres undefined) | 96 nM
CCCCCCCN1N=C(C)C(C(=O)c2ccccc2)C1=O (centres undefined) | 1330 nM
Cc1nc2c(=O)n(C)c(=O)nc-2n(C)n1 | 2770 nM
Cc1ccc(NC2=C/C(=N\S(=O)(=O)c3cccs3)c3ccccc3C2=O)c(C)c1 | 1660 nM
CCn1cnc2c1c(=O)n(CC(=O)Nc1cc(C)on1)c(=O)n2Cc1ccccc1 | > 15000 nM (inactive)
Cc1cccc(NC(=O)c2nc[nH]c2C(=O)N[C@@H](Cc2ccccc2)C(=O)OC(C)(C)C)c1 | 1440 nM
c1ccc(-c2nc(N3CCCCCC3)nc(-n3ccnc3)n2)cc1 | 2410 nM
CCC(C)Sc1cc(-c2nc3ccccn3c2NC2CCCCC2)ccc1OC (centres undefined) | 2940 nM
O=C1NC(=S)/C(=C\c2ccc(-c3ccccc3Cl)o2)S1 | 2940 nM
CC(C)(C)C(=O)N1N=C(c2ccc(NS(C)(=O)=O)cc2)CC1c1cccs1 (centres undefined) | 7490 nM
C/C(=N/Nc1nc(-c2ccccc2F)nc2ccccc12)c1ccccc1O | 8270 nM
O=S(=O)(Cc1cc(NCc2ccccc2)nc(-c2ccccn2)n1)c1ccccc1 | 808 nM
CC(Oc1ccc(F)cc1)C(=O)Nc1ccccc1N1CCCCC1 (centres undefined) | 5010 nM
CC(OC(=O)CC1CCCC1)C(=O)Nc1ccc(S(N)(=O)=O)cc1 (centres undefined) | > 15000 nM (inactive)
CC(C)Sc1cc(N2CCCC2)nc(-c2ccc(F)cc2)n1 | 5900 nM
CN1CCN(C2Cc3ccc(Cl)cc3Sc3ccc(F)cc32)CC1 (centres undefined) | 6470 nM
COC(=O)c1cc(-c2ccc(Br)cc2)c2c(=O)[nH]c(=O)n(C)c2n1 | 1220 nM
Cc1ccsc1C(=O)OCC(=O)c1cc2ccccc2o1 | > 15000 nM (inactive)
CCOC(=O)c1c(NC(=S)N2CCN(C)CC2)sc(C)c1-c1ccccc1 | 6510 nM
CN1Cc2cc(C(=O)c3cc(Cl)cc(CSc4ncccn4)c3O)cnc2NC1=O | 9390 nM
COc1ccc(-c2cc3nc4ccccc4n3c(N)c2C#N)cc1 | 4210 nM

SMILES | EC50
Cc1nn(-c2ccccc2)c(C)c1/C=N/n1c(-c2ccc(C(C)(C)C)cc2)n[nH]c1=S | 2620 nM
CCCn1c(NC(=O)c2ccccc2)nc2ccccc21 | 1570 nM
Cc1nc(N)nc(N)c1CCCc1ccc(Cl)c(Cl)c1 | 870 nM
c1ccc(-c2cc3c(NCC4COc5ccccc5O4)ncnc3s2)cc1 (centres undefined) | 2980 nM
CC(C)(C)c1ccc(Cn2ccc(-c3ccc4c(c3)OCO4)n2)cc1 | 7090 nM
Cc1ccccc1CN(C)CC(=O)Nc1ccccc1-c1ccccc1 | 3300 nM
Oc1ccc(Cl)cc1-c1cc(-c2cccc(Br)c2)n[nH]1 | 3620 nM
Cc1ccnc(NC(c2ccsc2)c2ccc3ccc(C)nc3c2O)c1 (centres undefined) | 11700 nM
Cc1ccccc1OCCCCc1c(C)n[nH]c1C | 7360 nM
Cc1onc(-c2ccccc2)c1C(=O)NC(=S)NNC(=O)c1ccc(O)cc1 | 568 nM
Cn1c(O)c(N=NC(=O)c2cc(-c3cccs3)nc3ccccc23)c2ccccc21 | 2570 nM
COc1ccc2cc(C(=O)/C=C/c3cc(OC)c(O)c(OC)c3)ccc2c1 | 6680 nM
S=C(NCC1CCCCC1)Nc1ccc(Oc2ccccc2)cc1 | 11000 nM
O=C(Nc1nnc(-c2ccc(Cl)cc2)o1)c1ccccc1Br | 1590 nM
Cc1cccnc1Nc1nc(-c2ccccn2)cs1 | 705 nM
COCC1CCN(C(=O)CCc2nnc(C3(c4ccc(Cl)cc4)CCC3)o2)C1 (centres undefined) | > 15000 nM (inactive)
Cc1ccc2cc(CN(Cc3cccs3)C(=O)c3ccco3)c3nnnn3c2c1C | 4710 nM
CC1CCN(c2ccccc2NC(=O)c2ccc(Br)o2)CC1 | 5290 nM
Cc1ccc(S(=O)(=O)N2c3ccccc3OCC2C(C)(C)C)cc1 (centres undefined) | 2590 nM
CC12CCC(c3c(C(=O)Nc4nccs4)nn(-c4ccccc4)c31)C2(C)C (centres undefined) | 3400 nM
COc1cc(OC)cc(C(=O)NC(=S)NNC(=O)Cc2cccs2)c1 | 716 nM
Oc1c(C(c2ccccn2)N2CCCCC2)cc(Cl)c2cccnc12 (centres undefined) | 8880 nM

SMILES | EC50
COc1cc2c3c(c1)/C(=C1/SC(=S)NC1=O)C(=O)N3C(C)(C)C=C2C | 1100 nM
O=C(Oc1ccc(Cl)c2cccnc12)c1ccco1 | 3690 nM
C[C@@H](C[C@@H](O)[C@H](O)C(C)(C)O)[C@@H]1CC[C@]2(C)C3=CC[C@H]4C(C)(C)C(=O)CC[C@]4(C)[C@H]3CC[C@@]12C | 2460 nM
O=C(/C=C/c1ccccc1)NC(=S)NNC(=O)Cc1cccs1 | 1470 nM
Oc1[nH]c2ccc(Br)cc2c1N=NC(=S)Nc1ccc(F)cc1 | 115 nM
Cc1nn(CC(=O)Nc2c(F)c(F)cc(F)c2F)c(=O)c2cccn12 | > 15000 nM (inactive)
COc1ccc(-c2cc(-c3ccc(Cl)cc3)n[nH]2)c(O)c1 | 8750 nM
Cc1ccccc1NS(=O)(=O)c1ccc(C)c(C(=O)N2CCOCC2)c1 | > 15000 nM (inactive)
Cn1cc(C(=O)c2ccc(Cl)cc2Cl)cc1C(=O)N/N=C(\N)COc1ccc(Cl)cc1Cl | 1720 nM
CCOC(=O)c1[nH]c2ccc(F)cc2c1NC(=O)c1ccccc1C(=O)O | > 15000 nM (inactive)
Clc1ccc(-[n+]2c(-c3cccc(Br)c3)[nH]c3nc4ccccc4nc32)cc1 | 1670 nM
Cc1ccc(OP(=O)(Nc2cccc(C)c2)Oc2ccc(C)cc2)cc1 | 9090 nM
CCSc1nsc(NC(=O)Nc2cccc(F)c2)n1 | 7630 nM
Cc1ccc2[nH]c(O)c(N=NC(=O)c3ccc(NS(=O)(=O)c4cccs4)cc3)c2c1 | 1250 nM
O=C(/C=C/c1ccccc1Cl)c1ccccc(=O)c1O | 824 nM
Cc1cc(C)n(-c2nc(C)nc(NCc3ccccc3)n2)n1 | > 15000 nM (inactive)
CN(c1ccccc1)S(=O)(=O)c1ccc(C(=O)Nc2nnc(-c3ccc(F)cc3)o2)cc1 | 225 nM
O=C(Nc1nnc(-c2ccccc2)o1)c1ccc(Cl)cc1 | 254 nM
CC(C)(C)c1cc[n+](C2=C([O-])c3ccccc3C(=O)/C2=N\S(=O)(=O)c2cccs2)cc1 | 2020 nM
CC(=O)NC[C@H]1CN(c2ccc(N3CCOCC3)c(F)c2)C(=O)O1 | 158 nM
CC(C)Cc1csc(NC(=O)c2ccc(Br)cc2)c1C(=O)O | 1570 nM
Cc1cc(C)c2nc(SCCc3ccccc3)nc(C)c2c1 | 5850 nM

SMILES | EC50
COc1cc(C(=O)NNC(=S)NC(=O)c2ccc(F)cc2)cc(OC)c1OC | 989 nM
Cc1cc(NC(=O)c2ccc3c(c2)OCCO3)ccc1NC(=O)c1cc2ccccc2o1 | 10100 nM
Clc1ccc(COn2c(-c3ccc(Cl)cc3)nc3ccccc32)cc1 | 6120 nM
CCCc1sc(N/N=C/c2ccccn2)nc1-c1ccc(F)cc1 | 9330 nM
CC(C)OC(=O)c1c2nc3ccccc3nc2n2c1[nH]c(=O)c1ccccc12 | 910 nM
CCC(CC)NC(=O)c1oc2ccccc2c1COc1ccccc1 | 13000 nM
O=[N+]([O-])c1ccc(/C=N/Nc2nc(-c3ccccc3)c3cc(Br)ccc3n2)o1 | 466 nM
N/C(=N\NC(=O)c1sccc1OCc1ccc(Cl)cc1Cl)c1ccccn1 | 3320 nM
Cc1ccccc1-n1cnc2cc(NCc3cccs3)ccc21 | 4690 nM
O=C(COc1ccccc1)NNC(=S)NC(=O)c1ccc(Cl)cc1Cl | 361 nM
O=c1c2cc(N3CCOCC3)ccc2[nH]c(=S)n1CCc1ccccc1 | 482 nM
Cc1cccc(C(=O)NC(=S)NNC(=O)c2ccc(Cl)cc2)c1 | 187 nM
Nc1nonc1C(=O)NCCN=Cc1cc(Cc2ccccc2)cc(Br)c1O | 5000 nM
O=c1[nH]c2ccc(Cl)cc2c(-c2ccccc2)c1N1CCN(c2ccccn2)CC1 | 2830 nM
C=C(C)[C@@H]1CCC2(C(=O)O)CC[C@]3(C)[C@H](CC[C@@H]4[C@@]5(C)CCC(=O)C(C)(C)[C@@H]5CC[C@]43C)[C@@H]12 (some centres undefined) | 1850 nM
CCCCCCCCCCCC1=C(O)C(=O)C=C(O)C1=O | 1670 nM
Oc1c(N=NC(=S)Nc2ccccc2F)c2ccccc2n1Cc1cccc(Cl)c1 | 658 nM
O=C(NCc1ccccc1)C(=O)Nc1nc(-c2ccccc2)cs1 | 5230 nM
CCOC(=O)c1sc2ncnc(NCC(c3cccs3)N(C)C)c2c1C (centres undefined) | 7950 nM
O=c1[nH]c(NNC(=S)NCc2ccccc2)nc2c1C1(CCCCC1)Cc1ccccc1-2 | 1330 nM
Cc1ccc(N=N/C(=C\O)C(=O)c2ccc(Cl)cc2)cc1 | 8590 nM

Source: PubChem BioAssay AID1902 (Broad Institute, 2009)
